Data on 20 compounds can be found in patent US9718813B2, “Imidazolin-5-one derivative useful as FASN inhibitors for the treatment of cancer” (Janssen Pharmaceutica, NV, priority 2013, dated 2017).

Molecules are shown by their SMILES.

In the first experiment the target is hFASN enzyme (full length) (Homo sapiens (Human), UniProt P49327). As to the kind of experiment: Fatty Acid Synthase (FASN) Inhibition Scintillation Proximity Assay. In kind it is biochemical. Conditions: 3H-acetyl-CoA and malonyl-CoA substrates, SPA, mean if tested more than once. As for the experimental part: In this assay, inhibition of FASN activity is measured using ^3H-acetyl-CoA and malonyl-CoA as substrates. ^3H-Acetyl CoA is converted to ^3H-palmitate through a series of reactions by the FASN protein, which contains 7 functional domains and carries out 7 enzymatic reactions to ultimately produce ^3H-palmitate. The assay principle is based upon the fact that ^3H-acetyl-CoA is hydrophilic and the end product, ^3H-palmitate is hydrophobic.
Sequence of hFASN enzyme (full length) (P49327 whole entry, the tested form may be a part): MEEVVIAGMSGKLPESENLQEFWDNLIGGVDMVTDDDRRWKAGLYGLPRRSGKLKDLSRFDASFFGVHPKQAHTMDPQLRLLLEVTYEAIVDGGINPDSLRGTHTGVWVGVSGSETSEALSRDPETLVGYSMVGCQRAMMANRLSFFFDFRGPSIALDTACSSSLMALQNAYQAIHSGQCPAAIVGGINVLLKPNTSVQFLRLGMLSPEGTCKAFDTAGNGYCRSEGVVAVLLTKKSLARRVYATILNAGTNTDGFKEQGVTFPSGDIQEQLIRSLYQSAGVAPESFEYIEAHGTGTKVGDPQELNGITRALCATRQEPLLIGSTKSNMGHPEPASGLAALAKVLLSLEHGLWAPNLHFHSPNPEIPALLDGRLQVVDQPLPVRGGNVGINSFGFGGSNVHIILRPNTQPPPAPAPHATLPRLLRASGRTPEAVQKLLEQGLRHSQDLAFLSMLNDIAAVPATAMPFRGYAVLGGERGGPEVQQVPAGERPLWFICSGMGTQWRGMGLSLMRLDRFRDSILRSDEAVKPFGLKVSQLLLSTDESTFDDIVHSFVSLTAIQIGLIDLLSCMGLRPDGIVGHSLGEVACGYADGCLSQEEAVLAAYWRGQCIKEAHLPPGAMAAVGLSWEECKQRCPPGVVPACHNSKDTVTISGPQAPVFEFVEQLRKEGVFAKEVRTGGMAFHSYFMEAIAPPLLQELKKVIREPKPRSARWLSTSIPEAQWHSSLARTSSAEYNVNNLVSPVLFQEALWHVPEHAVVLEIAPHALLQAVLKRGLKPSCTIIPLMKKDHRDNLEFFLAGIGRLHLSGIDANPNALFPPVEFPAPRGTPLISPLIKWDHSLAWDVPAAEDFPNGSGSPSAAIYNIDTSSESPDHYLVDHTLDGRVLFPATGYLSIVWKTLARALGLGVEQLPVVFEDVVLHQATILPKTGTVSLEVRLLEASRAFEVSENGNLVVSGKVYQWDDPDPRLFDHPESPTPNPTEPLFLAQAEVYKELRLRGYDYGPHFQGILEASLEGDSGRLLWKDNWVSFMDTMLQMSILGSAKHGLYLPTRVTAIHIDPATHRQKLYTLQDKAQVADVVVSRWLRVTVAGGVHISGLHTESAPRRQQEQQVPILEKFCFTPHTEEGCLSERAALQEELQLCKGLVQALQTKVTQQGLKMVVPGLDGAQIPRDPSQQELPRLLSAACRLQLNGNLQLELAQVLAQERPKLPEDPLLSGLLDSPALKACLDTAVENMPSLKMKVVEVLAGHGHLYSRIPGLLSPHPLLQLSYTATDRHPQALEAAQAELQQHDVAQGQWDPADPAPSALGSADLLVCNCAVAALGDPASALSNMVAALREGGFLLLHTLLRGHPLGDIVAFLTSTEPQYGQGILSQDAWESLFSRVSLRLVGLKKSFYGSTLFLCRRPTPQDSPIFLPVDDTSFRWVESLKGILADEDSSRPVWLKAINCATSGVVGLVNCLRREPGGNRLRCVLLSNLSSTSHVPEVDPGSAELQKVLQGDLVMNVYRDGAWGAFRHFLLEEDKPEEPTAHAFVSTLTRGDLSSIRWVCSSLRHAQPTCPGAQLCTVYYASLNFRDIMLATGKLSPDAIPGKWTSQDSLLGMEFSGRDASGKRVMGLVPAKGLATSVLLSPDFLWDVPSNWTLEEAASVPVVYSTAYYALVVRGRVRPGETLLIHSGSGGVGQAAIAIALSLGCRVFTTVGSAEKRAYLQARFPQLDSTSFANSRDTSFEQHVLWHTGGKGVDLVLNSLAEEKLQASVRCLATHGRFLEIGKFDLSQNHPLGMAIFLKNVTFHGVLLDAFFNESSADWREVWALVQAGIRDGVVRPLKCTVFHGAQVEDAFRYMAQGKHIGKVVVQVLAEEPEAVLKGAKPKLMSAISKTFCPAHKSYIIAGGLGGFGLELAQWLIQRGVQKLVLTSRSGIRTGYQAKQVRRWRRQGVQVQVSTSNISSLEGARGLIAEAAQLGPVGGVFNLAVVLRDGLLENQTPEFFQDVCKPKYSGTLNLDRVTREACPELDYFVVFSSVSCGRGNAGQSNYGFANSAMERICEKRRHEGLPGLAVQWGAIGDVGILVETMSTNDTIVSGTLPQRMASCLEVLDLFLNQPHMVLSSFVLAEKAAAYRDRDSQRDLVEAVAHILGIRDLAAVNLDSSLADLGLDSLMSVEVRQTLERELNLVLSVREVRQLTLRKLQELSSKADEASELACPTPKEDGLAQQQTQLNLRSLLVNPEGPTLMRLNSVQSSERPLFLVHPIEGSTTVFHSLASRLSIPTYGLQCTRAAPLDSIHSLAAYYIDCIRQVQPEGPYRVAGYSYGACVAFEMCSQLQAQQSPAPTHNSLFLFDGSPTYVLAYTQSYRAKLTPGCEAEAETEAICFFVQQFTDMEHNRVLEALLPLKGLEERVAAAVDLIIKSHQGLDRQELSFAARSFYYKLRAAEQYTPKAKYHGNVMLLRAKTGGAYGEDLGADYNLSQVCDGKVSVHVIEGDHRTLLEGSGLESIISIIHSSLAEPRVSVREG
10 μL assay buffer (100 mM KH2PO4 pH 7.5, 1 mM DTT) (20 μL in blanks) was added to a 384-well white Opti Plate plate (Perkin Elmer). 0.9 μL test compound (at concentrations of 30 μM, 10 μM, 3 μM, 1 μM, 0.30 μM, 0.10 μM, 0.03 μM and 0.01 μM)/DMSO and 10 μL hFASN enzyme (full length, 300 ng, purified in house) or 10 μL assay buffer was added to the wells. […] The reaction was stopped by adding 20 μL Streptavidin coupled imaging beads (25 mg/ml). After incubation for 30 minutes at room temperature in the dark, the 384 well plate was centrifuged at 1500 rpm for 3 minutes and was measured after at least 24 hrs by the LEADseeker™, measuring emission using a 610±20 nm pass filter.
Raw data generated by the instrument were normalized to % Controlmin values, which were calculated as: % Controlmin=100*(x−mLC)/(mHC−mLC)
where mLC and mHC were the means of the low control wells and high control wells on the plate, after manual exclusion of outliers. A plot of Controlmin versus test compound concentration was fitted to a 4-parameter logistic curve using a non-linear least squares regression method.
Turning to `CC1(C)N=C(c2ccc(-c3ccc4cc(F)ccc4c3)cc2F)N(C[C@@H]2CCN(C(=O)C3(O)CC3)C2)C1=O` [Compound 88, (R)-2-(2-fluoro-4-(6-fluoronaphthalen-2-yl)phenyl)-1-((1-(1-hydroxycyclopropanecarbonyl)pyrrolidin-3-yl)methyl)-4,4-dimethyl-1H-imidazol-5(4H)-one], the “Human FASN pIC50” value is reported as 7.69. On the same count and under the same terms, in the case of `CC1(C)N=C(c2ccc(-c3ccc4ncccc4c3)cc2)N(C[C@@H]2CCN(C(=O)C3CC3)C2)C1=O` [Compound 64, (R)-1-((1-(cyclopropanecarbonyl)pyrrolidin-3-yl)methyl)-4,4-dimethyl-2-(4-(quinolin-6-yl)phenyl)-1H-imidazol-5(4H)-one] it was 5.67; in that of `Cn1cnc2cc(-c3ccc(C4=NC(C)(C)C(=O)N4CC4CN(C(=O)C5(O)CC5)C4)c(F)c3)ccc21` [Compound 94, 2-(2-fluoro-4-(1-methyl-1H-benzo[d]imidazol-5-yl)phenyl)-1-((1-(1-hydroxycyclopropanecarbonyl)azetidin-3-yl)methyl)-4,4-dimethyl-1H-imidazol-5(4H)-one], 6.49; in that of `CC1(C)N=C(c2ccc(-c3n[nH]c4ccccc34)cc2)N(C[C@@H]2CCN(C(=O)C3CC3)C2)C1=O` [Compound 35, (R)-2-(4-(1H-indazol-3-yl)phenyl)-1-((1-(cyclopropanecarbonyl)pyrrolidin-3-yl)methyl)-4,4-dimethyl-1H-imidazol-5(4H)-one], around 5.19. Still for that read-out and setting: with `CC1(C)N=C(c2ccc(-c3cccc4cnccc34)cc2F)N(CC2CN(C(=O)C3CC3)C2)C1=O` [Compound 21, 1-((1-(cyclopropanecarbonyl)azetidin-3-yl)methyl)-2-(2-fluoro-4-(isoquinolin-5-yl)phenyl)-4,4-dimethyl-1H-imidazol-5(4H)-one] the figure was 5.87; with `CC1(C)N=C(c2ccc(-c3cccc4ncccc34)cc2)N(CC2CN(C(=O)C3CC3)C2)C1=O` [Compound 18, 1-((1-(cyclopropanecarbonyl)azetidin-3-yl)methyl)-4,4-dimethyl-2-(4-(quinolin-5-yl)phenyl)-1H-imidazol-5(4H)-one], around 5.25; with `Cn1cnc2cc(-c3ccc(C4=NC(C)(C)C(=O)N4C[C@@H]4CCN(C(=O)C5(O)CC5)C4)c(F)c3)ccc21` [Compound 89, (R)-2-(2-fluoro-4-(1-methyl-1H-benzo[d]imidazol-5-yl)phenyl)-1-((1-(1-hydroxycyclopropanecarbonyl)pyrrolidin-3-yl)methyl)-4,4-dimethyl-1H-imidazol-5(4H)-one], 7.22.

Take `CC1(C)N=C(c2ccc(-c3n[nH]c4ccccc34)cc2F)N(CC2CN(C(=O)C3CC3)C2)C1=O` [Compound 58, 1-((1-(cyclopropanecarbonyl)azetidin-3-yl)methyl)-2-(2-fluoro-4-(1H-indazol-3-yl)phenyl)-4,4-dimethyl-1H-imidazol-5(4H)-one]: the “Human FASN pIC50” value is 6.00. On the same count and under the same terms, in the case of `Cc1cc(-c2ccc3c(c2)ncn3C)ccc1C1=NC(C)(C)C(=O)N1CC1CN(C(=O)C2(O)CC2)C1` [Compound 91, 1-((1-(1-hydroxycyclopropanecarbonyl)azetidin-3-yl)methyl)-4,4-dimethyl-2-(2-methyl-4-(1-methyl-1H-benzo[d]imidazol-5-yl)phenyl)-1H-imidazol-5(4H)-one] it was 6.37; in that of `CC1(C(=O)N2CC[C@@H](CN3C(=O)C(C)(C)N=C3c3ccc(-c4ccc5cc(F)ccc5c4)cc3F)C2)CC1` [Compound 75, (R)-2-(2-fluoro-4-(6-fluoronaphthalen-2-yl)phenyl)-4,4-dimethyl-1-((1-(1-methylcyclopropanecarbonyl)pyrrolidin-3-yl)methyl)-1H-imidazol-5(4H)-one], 7.26.

In the case of `CC1(C)N=C(c2ccc(-c3nc4ccccc4o3)cc2)N(CC2CN(C(=O)C3CC3)C2)C1=O` [Compound 12, 2-(4-(benzo[d]oxazol-2-yl)phenyl)-1-((1-(cyclopropanecarbonyl)azetidin-3-yl)methyl)-4,4-dimethyl-1H-imidazol-5(4H)-one], the “Human FASN pIC50” value is reported as around 5.37. `Cn1cc(-c2ccc(-c3ccc(C4=NC(C)(C)C(=O)N4C[C@@H]4CCN(C(=O)C5(O)CC5)C4)c(F)c3)cc2)cn1` [Compound 95, (R)-2-(3-fluoro-4′-(1-methyl-1H-pyrazol-4-yl)-[1,1′-biphenyl]-4-yl)-1-((1-(1-hydroxycyclopropanecarbonyl)pyrrolidin-3-yl)methyl)-4,4-dimethyl-1H-imidazol-5(4H)-one]: the “Human FASN pIC50” value was 7.52. On the same count and under the same terms, with `Cc1cc(-c2ccc3cc(C#N)ccc3c2)ccc1C1=NC(C)(C)C(=O)N1CC1CN(C(=O)C2CC2)C1` [Compound 96, 6-(4-(1-((1-(cyclopropanecarbonyl)azetidin-3-yl)methyl)-4,4-dimethyl-5-oxo-4,5-dihydro-1H-imidazol-2-yl)-3-methylphenyl)-2-naphthonitrile] the figure was 7.39; with `CC1(C)N=C(c2ccc(-c3c[nH]c4ccccc34)cc2)N(CC2CN(C(=O)C3CC3)C2)C1=O` [Compound 59, 2-(4-(1H-indol-3-yl)phenyl)-1-((1-(cyclopropanecarbonyl)azetidin-3-yl)methyl)-4,4-dimethyl-1H-imidazol-5(4H)-one], around 5.79. Still for that read-out and setting: with `CC1(C)N=C(c2ccc(-c3ccc4ncccc4c3)cc2F)N(CC2CN(C(=O)C3CC3)C2)C1=O` [Compound 38, 1-((1-(cyclopropanecarbonyl)azetidin-3-yl)methyl)-2-(2-fluoro-4-(quinolin-6-yl)phenyl)-4,4-dimethyl-1H-imidazol-5(4H)-one] the figure was 5.05; with `CC1(C)N=C(c2ccc(-c3ccc4cncnc4c3)cc2)N(CC2CN(C(=O)C3CC3)C2)C1=O` [Compound 36, 1-((1-(cyclopropanecarbonyl)azetidin-3-yl)methyl)-4,4-dimethyl-2-(4-(quinazolin-7-yl)phenyl)-1H-imidazol-5(4H)-one], 5.43. On the same count and under the same terms, in the case of `CC1(C)N=C(c2ccc(-c3cnc4ccccc4c3)cc2)N(CC2CN(C(=O)C3CC3)C2)C1=O` [Compound 19, 1-((1-(cyclopropanecarbonyl)azetidin-3-yl)methyl)-4,4-dimethyl-2-(4-(quinolin-3-yl)phenyl)-1H-imidazol-5(4H)-one] it was 5.38.

With `Cn1cnc2cc(-c3ccc(C4=NC(C)(C)C(=O)N4CC4CN(C(=O)C5(C)CC5)C4)c(F)c3)ccc21` [Compound 93, 2-(2-fluoro-4-(1-methyl-1H-benzo[d]imidazol-5-yl)phenyl)-4,4-dimethyl-1-((1-(1-methylcyclopropanecarbonyl)azetidin-3-yl)methyl)-1H-imidazol-5(4H)-one], the “Human FASN pIC50” value was found to be 7.00.

As for `Cn1ncc2cc(-c3ccc(C4=NC(C)(C)C(=O)N4C[C@@H]4CCN(C(=O)C5(O)CC5)C4)c(F)c3)ccc21` [Compound 76, (R)-2-(2-fluoro-4-(1-methyl-1H-indazol-5-yl)phenyl)-1-((1-(1-hydroxycyclopropanecarbonyl)pyrrolidin-3-yl)methyl)-4,4-dimethyl-1H-imidazol-5(4H)-one], the “Human FASN pIC50” value turned out to be 7.07.

The experiment is the same for the next values; noted with them: 3H-acetyl-CoA and malonyl-CoA substrates, SPA, mean if tested more than once, read-out: Human FASN pIC50 (converted).
Take `CC1(C)N=C(c2ccc(-c3ccc4ncccc4c3)cc2)N(CC2CN(C(=O)C3CC3)C2)C1=O` [Compound 98, 1-((1-(cyclopropanecarbonyl)azetidin-3-yl)methyl)-4,4-dimethyl-2-(4-(quinolin-6-yl)phenyl)-1H-imidazol-5(4H)-one]: the IC50 was above 10 µM.
